In patent US20250268887A1, “THERAPEUTIC USES OF BRADYKININ B2-RECEPTOR ANTAGONISTS” (Pharvaris GmbH, priority 2022, published 2025):

Assay: Elimination half-life
Details: human, in vivo

half-life: ~4 h
Compound: [2H][C@@](C)(NC(=O)COC(F)F)c1cc(F)cc(Cl)c1COc1cccc2c(-c3ncnn3C)cc(C)nc12 [PHA-022121, (S)-N-(1-deutero-1-(3-chloro-5-fluoro-2-((2-methyl-4-(1-methyl-1H-1,2,4-triazol-5-yl)quinolin-8-yloxy)methyl)phenyl)ethyl)-2-(difluoromethoxy)acetamide]
